# Reference: patent EP4700023A1, “GLP-1R RECEPTOR AGONIST COMPOUND SALT AND CRYSTAL FORM THEREOF, PREPARATION METHOD THEREFOR AND USE THEREOF” (Chengdu Vincentage Pharma Co., Ltd., priority 2023, dated 2024)
# Where a name gives a salt, the structure may show the parent alone.
# What was measured:
# [1] = Pharmacokinetic evaluation in rats; type: in vivo; conditions: Rat PK, 10 mg/kg
# Experimental: Rats were used as test animals, and the plasma drug concentrations at different time points after gavage administration of the test sample were measured. The pharmacokinetic behavior of the compound of the present disclosure in rats was studied to evaluate its metabolic characteristics. For each experimental group, 3 rats with similar body weights were selected and orally administered a single dose of 10 mg/kg. […] Pharmacokinetic parameter calculations were performed using metabolic kinetic data analysis software WinNonlin 7.0 by non-compartmental analysis (NCA) based on plasma concentration data.
# A test sample with a final preparation concentration (based on the content of the compound of formula I) of 1.0 mg/mL was prepared for oral administration, using a 0.5% CMC Na aqueous solution as the preparation solvent.
# Administration: After overnight fasting (12 hours), rats were administered by gavage at a dose of 10 mg/kg.
# The blood samples were placed in heparinized sample tubes, and centrifuged at 4°C and 3500 rpm for 10 minutes to separate plasma, which was then stored at -20°C. Food was provided 2 hours after administration.
# Determination of the content of the compound to be tested in rat plasma after gavage administration: After thawing plasma samples at room temperature, 300 µL of internal standard (terfenadine 200 ng/mL, acetonitrile) was added to each sample. The mixtures were vortexed for 1 min and then centrifuged at 4°C and 15400 rpm for 10 min. The supernatant was diluted 20-fold with 80% acetonitrile-water and then injected for LC/MS/MS analysis.
# [2] = Purity test after storage in an oven at set temperature (stability); type: physicochemical; conditions: 80°C, 1 day
# [3] = Compressibility test (tableting, XRPD detection); type: physicochemical; conditions: compressed into tablets
# [4] = Grindability test (mortar, XRPD detection); type: physicochemical; conditions: for Grindability (mortar 5 min), solid form: XRPD
# Experimental: Grindability test: An appropriate amount of the crystal compound to be tested was placed in a mortar and ground for 2 min and 5 min, followed by XRPD detection.
# [5] = Tableting and grinding test (XRPD, FIG. 21 to 25); type: physicochemical
# Experimental: Grindability test: An appropriate amount of the crystal compound to be tested was placed in a mortar and ground for 2 min and 5 min, followed by XRPD detection. […]
# [6] = Hygroscopicity test method (DVS); type: physicochemical; parameters: Sorption / Desorption / Hysteresis: unit not given here; conditions: for Hygroscopicity (80% RH) / Hygroscopicity (80% RH), description in words: 25°C, DVS; for Desorption / Sorption / Hysteresis: onset temperature 24.9°C
# Experimental: Hygroscopicity test method (DVS): The hygroscopicity of the sample was measured using SMS Intrinsic Plus. The sample was weighed into a sample pan, equilibrated at 25°C until dm/dt was less than 0.002%, and then measured in time mode. The humidity was adjusted from 60%-90%-0%-90%-0% RH, with increments of 10% RH per step, and each humidity level was maintained for 1 hour.
# [7] = Purity test after storage in an oven at set temperature (stability); type: physicochemical; conditions: HPLC; for Purity, Onset: Onset (before storage)
# Experimental: Purity test: The sample to be tested was dissolved in a methanol solution, and the sample purity was measured by HPLC.
# [8] = Cycle 2, target humidity 0.0 % P/P0
# [9] = Cycle 2, target humidity 10.0 % P/P0
# [10] = Cycle 2, target humidity 20.0 % P/P0
# [11] = Cycle 2, target humidity 30.0 % P/P0
# [12] = Cycle 2, target humidity 40.0 % P/P0
# [13] = Cycle 2, target humidity 50.0 % P/P0
# [14] = Cycle 2, target humidity 60.0 % P/P0
# [15] = Cycle 2, target humidity 70.0 % P/P0
# [16] = Cycle 2, target humidity 80.0 % P/P0
# [17] = Cycle 2, target humidity 90.0 % P/P0
# [18] = Target humidity 0.0 % P/P0, first cycle
# [19] = Target humidity 10.0 % P/P0, first cycle
# [20] = Target humidity 20.0 % P/P0, first cycle
# [21] = Target humidity 30.0 % P/P0, first cycle
# [22] = Target humidity 40.0 % P/P0, first cycle
# [23] = Target humidity 50.0 % P/P0, first cycle
# [24] = Target humidity 60.0 % P/P0, first cycle
# [25] = Target humidity 70.0 % P/P0, first cycle
# [26] = Target humidity 80.0 % P/P0, first cycle
# [27] = Target humidity 90.0 % P/P0, first cycle
# [28] = after tableting, after grinding for 5 minutes and for 2 minutes, FIG. 21 to 23
smiles,measurement,setting,value
"O=C(O)c1ccc2nc(CN3CCC(c4ccccc4OCc4ccc(Cl)cc4F)CC3)n(C[C@@H]3CCO3)c2c1 [Crystal form A of the monohydrate of the 2-amino-2-(hydroxymethyl)-1,3-propanediol salt of (S)-2-((4-(2-((4-chloro-2-fluorobenzyl)oxy)phenyl)piperidin-1-yl)methyl)-1-(oxetan-2-aminomethyl)-1H-benzo[d]imidazole-6-carboxylate]",AUC(0-inf),"[1]; in vivo, oral (PO)",772 ng·h/mL
same,AUC(0-t),"[1]; in vivo, oral (PO)",765 ng·h/mL
same,Cmax,"[1]; in vivo, oral (PO)",410 ng/mL
same,Tmax,"[1]; in vivo, oral (PO)",0.41 h
same,half-life,"[1]; in vivo, oral (PO)",1.59 h
"O=C(O)c1ccc2nc(CN3CCC(c4ccccc4OCc4ccc(Cl)cc4F)CC3)n(C[C@@H]3CCO3)c2c1 [Crystal form A of the monohydrate of the compound of formula] [Crystal form A of the monohydrate of the 2-amino-2-(hydroxymethyl)-1,3-propanediol salt of (S)-2-((4-(2-((4-chloro-2-fluorobenzyl)oxy)phenyl)piperidin-1-yl)methyl)-1-(oxetan-2-aminomethyl)-1H-benzo[d]imidazole-6-carboxylate]",Solid form after 80°C (1 day),[2],retained the crystal form
same,Compressibility (20 Mp),[3],Crystal form unchanged
same,Oral absorption,[1]; compared with the free acid,significantly better oral absorption than the compound of formula I (free acid)
same,"Grindability (mortar 5 min), purity change",[4],purity unchanged
same,"Grindability (mortar 5 min), solid form",[4],Crystalline form unchanged
same,Crystallinity after tableting and grinding,"[5]; first and second tableting at 20 MPa, tableting at 40 MPa, grinding for 1, 3 and 5 minutes, FIG. 24, 25",basically stable
same,Hygroscopicity (80% RH),[6],0.34%
same,"Hygroscopicity (80% RH), description in words",[6],Slightly hygroscopic
same,Desorption,[6]; [8],0.0112
same,Sorption,[6]; [8],0.0000
same,Desorption,[6]; [9],0.1186
same,Hysteresis,[6]; [9],0.0161
same,Sorption,[6]; [9],0.1025
same,Desorption,[6]; [10],0.1641
same,Hysteresis,[6]; [10],0.0175
same,Sorption,[6]; [10],0.1466
same,Desorption,[6]; [11],0.1996
same,Hysteresis,[6]; [11],0.0182
same,Sorption,[6]; [11],0.1814
same,Desorption,[6]; [12],0.2286
same,Hysteresis,[6]; [12],0.0145
same,Sorption,[6]; [12],0.2141
same,Desorption,[6]; [13],0.2611
same,Hysteresis,[6]; [13],0.0167
same,Sorption,[6]; [13],0.2443
same,Desorption,[6]; [14],0.2923
same,Hysteresis,[6]; [14],0.0177
same,Sorption,[6]; [14],0.2746
same,Desorption,[6]; [15],0.3219
same,Hysteresis,[6]; [15],0.0176
same,Sorption,[6]; [15],0.3043
same,Desorption,[6]; [16],0.3457
same,Hysteresis,[6]; [16],0.0099
same,Sorption,[6]; [16],0.3458
same,Desorption,[6]; [17],0.3759
same,Sorption,[6]; [17],0.3759
same,Desorption,[6]; [18],0.0000
same,Desorption,[6]; [19],0.1080
same,Desorption,[6]; [20],0.1542
same,Desorption,[6]; [21],0.1894
same,Desorption,[6]; [22],0.2213
same,Desorption,[6]; [23],0.2553
same,Desorption,[6]; [24],0.2989
same,Hysteresis,[6]; [24],0.0002
same,Sorption,[6]; [24],0.2896
same,Desorption,[6]; [25],0.3213
same,Hysteresis,[6]; [25],0.0053
same,Sorption,[6]; [25],0.3160
same,Desorption,[6]; [26],0.3490
same,Hysteresis,[6]; [26],0.0064
same,Sorption,[6]; [26],0.3426
same,Desorption,[6]; [27],0.3817
same,Sorption,[6]; [27],0.3817
same,"Purity, 2 to 8°C (6 months)","[7]; 2 to 8°C, 6 months",99.90%
same,"Purity, Onset",[7],99.95%
same,"Purity, 60°C (7 day)","[7]; oven, 60°C, 7 day",99.90%
same,"Purity, 80°C (1 day)",[7]; oven,99.35%
O=C(O)c1ccc2nc(CN3CCC(c4ccccc4OCc4ccc(Cl)cc4F)CC3)n(C[C@@H]3CCO3)c2c1 [Crystal form I of the compound of formula I] [(S)-2-((4-(2-((4-Chloro-2-fluorobenzyl)oxy)phenyl)piperidin-1-yl)methyl)-1-(oxetan-2-aminomethyl)-1H-benzo[d]imidazole-6-carboxylic acid],Compressibility (20 Mp),[3],"Crystal form I, significant reduction in crystallinity"
same,"Grindability (mortar 5 min), purity",[4],99.25%
same,"Grindability (mortar 5 min), solid form",[4],transformed to amorphous
same,Crystallinity after tableting and grinding,[5]; [28],decreasing crystallinity in different degrees
same,Hygroscopicity (80% RH),[6],2.5%
same,"Hygroscopicity (80% RH), description in words",[6],highly hygroscopic
same,Desorption,[6]; [18],0.013
same,Sorption,[6]; [18],0.019
same,Desorption,[6]; [19],0.807
same,Hysteresis,[6]; [19],0.042
same,Sorption,[6]; [19],0.766
same,Desorption,[6]; [20],1.307
same,Hysteresis,[6]; [20],0.035
same,Sorption,[6]; [20],1.271
same,Desorption,[6]; [21],1.588
same,Hysteresis,[6]; [21],0.047
same,Sorption,[6]; [21],1.541
same,Desorption,[6]; [22],1.816
same,Hysteresis,[6]; [22],0.062
same,Sorption,[6]; [22],1.754
same,Desorption,[6]; [23],2.072
same,Hysteresis,[6]; [23],0.112
same,Sorption,[6]; [23],1.960
same,Desorption,[6]; [24],2.286
same,Hysteresis,[6]; [24],0.125
same,Sorption,[6]; [24],2.161
same,Desorption,[6]; [25],2.441
same,Hysteresis,[6]; [25],0.097
same,Sorption,[6]; [25],2.344
same,Desorption,[6]; [26],2.576
same,Hysteresis,[6]; [26],0.065
same,Sorption,[6]; [26],2.511
same,Desorption,[6]; [27],2.685
same,Sorption,[6]; [27],2.685
same,"Purity, Onset",[7],99.27%
same,"Purity, 80°C (1 day)",[7]; oven,91.81%
O=C(O)c1ccc2nc(CN3CCC(c4ccccc4OCc4ccc(Cl)cc4F)CC3)n(C[C@@H]3CCO3)c2c1 [Crystal form II of the compound of formula I] [(S)-2-((4-(2-((4-Chloro-2-fluorobenzyl)oxy)phenyl)piperidin-1-yl)methyl)-1-(oxetan-2-aminomethyl)-1H-benzo[d]imidazole-6-carboxylic acid],Solid form after 80°C (1 day),[2],transformed to amorphous
same,Compressibility (20 Mp),[3],"Crystal form II, significant reduction in crystallinity"
same,"Grindability (mortar 5 min), purity",[4],99.7%
same,"Grindability (mortar 5 min), solid form",[4],transformed to amorphous
same,Crystallinity after tableting and grinding,[5]; [28],decreasing crystallinity in different degrees
same,"Purity, Onset",[7],99.73%
same,"Purity, 80°C (1 day)",[7]; oven,80.43%
O=C(O)c1ccc2nc(CN3CCC(c4ccccc4OCc4ccc(Cl)cc4F)CC3)n(C[C@@H]3CCO3)c2c1 [Crystal form III of the compound of formula I] [(S)-2-((4-(2-((4-Chloro-2-fluorobenzyl)oxy)phenyl)piperidin-1-yl)methyl)-1-(oxetan-2-aminomethyl)-1H-benzo[d]imidazole-6-carboxylic acid],Solid form after 80°C (1 day),[2],transformed to amorphous
same,Compressibility (20 Mp),[3],"Crystal form III, no significant reduction in crystallinity"
same,"Grindability (mortar 5 min), purity",[4],98.65%
same,"Grindability (mortar 5 min), solid form",[4],transformed to amorphous
same,Crystallinity after tableting and grinding,[5]; [28],decreasing crystallinity in different degrees
same,"Purity, Onset",[7],99.25%
same,"Purity, 80°C (1 day)",[7]; oven,83.43%
"O=C([O-])c1ccc2nc(CN3CCC(c4ccccc4OCc4ccc(Cl)cc4F)CC3)n(C[C@@H]3CCO3)c2c1.[Na+] [Sodium salt of the compound of formula I, Sodium salt of (S)-2-((4-(2-((4-chloro-2-fluorobenzyl)oxy)phenyl)piperidin-1-yl)methyl)-1-(oxetan-2-aminomethyl)-1H-benzo[d]imidazole-6-carboxylate]","Hygroscopicity (80% RH), description in words",[6],"Highly hygroscopic, deliquescent"
